Experimental data: US6528685B2 (Teva Pharmaceutical Industries, Ltd., priority 1994, dated 2003)

Assays:
[1] = test system: hypoxic rat; experiment: α-MpT-induced hypokinesia in hypoxic rat, Experiment 1B; type: in vivo; settings: hypoxic rats, 0.3 mg/Kg daily i.p. 21 days; for Locomotor activity after α-MpT treatment, recorded as big movements: Mean ± SEM
Method: (§1) Wistar male rats, 15-19 month-old, were exposed to a single hypoxic episode which is assumed to decrease the level of dopamine in the brain. […] The drugs were administered by gavage, using a special syringe equipped with rounded tip that could be directed into the stomach. The dose was contained in 0.3-0.5 mL of distilled water. The rats were pretreated for 70-80 days with daily doses of the test drugs and received intra-peritoneal (i.p.) α-MpT (α-methyl-p-tyrosine) at a dose of 100 mg/kg in 0.3-0.5 mL saline. Controls received saline. α-MpT is assumed to inhibit the formation of L-Dopa from tyrosine and, consequently the formation of dopamine itself. Lack of central dopamine is expressed as hypokinesia. Following the injection of α-MpT, motor activity was recorded for the duration of 10 hours. Locomotion scores were taken in seven fully-computerized cages (26×25 cm) having a grid of infra-red beams at 4 cm-intervals.
(§2) Crossing of a beam initiated an electric signal which was fed into a computer. The number of crossings over a given period provided a measure of locomotion.
(§3) The records gave two data categories: (a) “small movements” originating in stationary activities such as grooming and scratching and (b) “big movements” originating in ambulation and recorded as the simultaneous crossing of more than two beams. “Total movements” include both categories.
(§4) Counts of motor activity in the presence of α-MpT were related as percent with respect to counts in its absence in the corresponding control group (unlesioned or hypoxia-lesioned). Motor activity counts of drug-treated rats were related to the hypoxia saline-treated as 100%. All behavioral tests were performed 90-120 min. after administration of the last dose of the test compound.
The procedure of Experiment 1A was repeated with the following changes:
(1) Animal: 11-14 month-old rats.
The drugs were given i.p.
(3) Duration of the treatment: 21 days.
(4) Dose of α-MpT: 70 mg/Kg.

[2] = test system: hypoxic rat; experiment: Passive avoidance test in hypoxic rat, Experiment 3A; type: in vivo; settings: hypoxic rats
Method: Wistar male rats, 15-19 month-old, were exposed to a single hypoxic episode as described above. […] The passive avoidance test was performed on day 13 after initiation the drug treatment. The apparatus consisted of a lit chamber that can be separated from a dark chamber by a sliding door. At training, a rat is placed in the lit chamber for 30 seconds, then the door is opened. The rat moves to the dark chamber after a short delay—the latency, that is recorded. Upon entry into the dark chamber, the door is shut closed and a 0.3-mA footshock is delivered for 3 seconds by a Grass S-88 stimulator. Retention of the experience is determined after 48 hours by repeating the test and recording the latency to an arbitrary maximum of 300 seconds. Longer latencies are ascribed to retention of memory and improved cognition.

[3] = test system: hypoxia-lesioned rats; experiment: Water maze working memory test, Experiment 3B; type: in vivo, rat; settings: hypoxia-lesioned rats; 0.5 mg/kg/day 60 days; ± SEM
From the text: The apparatus used consists of a circular water tank 160 cm in diameter filled with water to a depth of 38 cm. The water was made cloudy by the addition of milk powder. A clear Plexiglass 15 cm platform, supported by a movable stand rest on the bottom of the tank was submerged to a depth of 2 cm from the water surface. Normally a swimming rat cannot perceive the location of the platform but it may recall it from a previous experience and training, unless it suffers from some memory impairment. The time taken to locate the platform is measured in seconds and referred to as the latency. During the experiment all orientational cues such as ceiling lights etc. remained unchanged. Longer latencies are observed with rats with some impairment to their memory.
Each rat was given two trails a day for four days, entering the pool from the same point of entry each day. The position of the platform was changed daily to one of four predetermined positions. Each rat was tested twice each day over the four days, referred to as runs 1 and 2 on sessions I-IV. Initially the rat was placed on the platform for 60 seconds. It was then removed and placed at the point of entry and allowed a maximum of 120 seconds to locate the platform (run 1). The second run for that day followed 60 seconds later (run 2). In the second run the rat is expected to find the platform much sooner, having benefitted from its earlier experience. […] The average latency of run 1 in four sessions on four different days was then related to the corresponding parameter of run 2. The smaller the ratio of […], the better the short range learning score.
Table 8. […] The data are the latencies in seconds±SEM that it took a given group to locate a submerged and invisible platform the location of which was shifted from one session to the other. The time interval between sessions was one day, and that between successive runs was 60 seconds. (n=7-8 rats per group)

[4] = test system: hypoxic rat; experiment: Amphetamine-induced stereotype behavior in hypoxic rat, Experiment 2A; type: in vivo; settings: hypoxic group, with respect to hypoxia and amphetamine control
Method: Wistar male rats, 15-19 month-old, were exposed to a single hypoxic episode as described above. […] Rats pretreated for 29 days with daily doses of the test drugs (0.5 mg/kg), received a sub-cutaneous (s.c.) injection of D-amphetamine sulfate at a dose of 0.5 mg/kg. D-amphetamine is known to cause an enhancement of the effects of CNS dopamine by a mechanism involving dopamine release, and blockage of its uptake and its metabolism by MAO. The behavioral manifestation of amphetamine action is a stereotypic pattern of lateral head movements. Counts of lateral head movements were taken over two successive intervals of 1 min each, 45-60 min after the injection of amphetamine and then averaged.

[5] = test system: hypoxic rat; experiment: α-MpT-induced hypokinesia in hypoxic rat, Experiment 1A; type: in vivo; settings: for Locomotor activity after α-MpT treatment, recorded as total movements / Locomotor activity after αMpT treatment, recorded as big movements: hypoxic rats, 0.5 mg/kg/day by gavage 70-80 days; for Locomotor activity after αMpT treatment, recorded as big movements: Mean ± SEM
Method: as §1, §2, §3, §4

C#CCN(C)[C@H](C)Cc1ccccc1 [deprenyl]
Locomotor activity after α-MpT treatment, recorded as total movements ([1]; hour 1 after α-MpT 70 mg/Kg): 68 ± 9%
Locomotor activity after α-MpT treatment, recorded as big movements ([1]; hour 1 after α-MpT 70 mg/Kg): 70 ± 10%
Locomotor activity after α-MpT treatment, recorded as total movements ([1]; hour 2 after α-MpT 70 mg/Kg): 95 ± 11%
Locomotor activity after α-MpT treatment, recorded as big movements ([1]; hour 2 after α-MpT 70 mg/Kg): 91 ± 19%
Locomotor activity after α-MpT treatment, recorded as total movements ([1]; hour 3 after α-MpT 70 mg/Kg): 126 ± 22%
Locomotor activity after α-MpT treatment, recorded as big movements ([1]; hour 3 after α-MpT 70 mg/Kg): 85 ± 19%
Locomotor activity after α-MpT treatment, recorded as total movements ([1]; hour 4 after α-MpT 70 mg/Kg): 118 ± 20%
Locomotor activity after α-MpT treatment, recorded as big movements ([1]; hour 4 after α-MpT 70 mg/Kg): 88 ± 23%
Locomotor activity after α-MpT treatment, recorded as total movements ([1]; hour 5 after α-MpT 70 mg/Kg): 83 ± 24%
Locomotor activity after α-MpT treatment, recorded as big movements ([1]; hour 5 after α-MpT 70 mg/Kg): 87 ± 11%
Locomotor activity after α-MpT treatment, recorded as total movements ([1]; hour 6 after α-MpT 70 mg/Kg): 78 ± 9%
Locomotor activity after α-MpT treatment, recorded as big movements ([1]; hour 6 after α-MpT 70 mg/Kg): 67 ± 8%
Locomotor activity after α-MpT treatment, recorded as total movements ([1]; hour 7 after α-MpT 70 mg/Kg): 56 ± 7%
Locomotor activity after α-MpT treatment, recorded as big movements ([1]; hour 7 after α-MpT 70 mg/Kg): 62 ± 9%
Locomotor activity after α-MpT treatment, recorded as total movements ([1]; hour 8 after α-MpT 70 mg/Kg): 185 ± 13%
Locomotor activity after α-MpT treatment, recorded as big movements ([1]; hour 8 after α-MpT 70 mg/Kg): 70 ± 9%
Locomotor activity after α-MpT treatment, recorded as total movements ([1]; hour 9 after α-MpT 70 mg/Kg): 111 ± 12%
Locomotor activity after α-MpT treatment, recorded as big movements ([1]; hour 9 after α-MpT 70 mg/Kg): 132 ± 24%
Locomotor activity after α-MpT treatment, recorded as total movements ([1]; hour 10 after α-MpT 70 mg/Kg): 61 ± 12%
Locomotor activity after α-MpT treatment, recorded as big movements ([1]; hour 10 after α-MpT 70 mg/Kg): 54 ± 13%
passive avoidance performance, in words [2]: showed no improvement
latency to locate platform, Session I Run 1 [3]: 42 ± 16 s
latency to locate platform, Session I Run 2 [3]: 40 ± 17 s
latency to locate platform, Session II Run 1 [3]: 42 ± 18 s
latency to locate platform, Session II Run 2 [3]: 35 ± 16 s
latency to locate platform, Session III Run 1 [3]: 32 ± 15 s
latency to locate platform, Session III Run 2 [3]: 8 ± 2 s
latency to locate platform, Session IV Run 1 [3]: 19 ± 6 s
latency to locate platform, Session IV Run 2 [3]: 12 ± 4 s
potentiation of stereotypic behavior induced by amphetamine, in words [4]: did not potentiate
Locomotor activity after α-MpT treatment, recorded as total movements ([5]; hour 1 after α-MpT): 88 ± 23%
Locomotor activity after αMpT treatment, recorded as big movements ([5]; hour 1 after α-MpT): 61 ± 15%
Locomotor activity after α-MpT treatment, recorded as total movements ([5]; hour 2 after α-MpT): 131 ± 30%
Locomotor activity after αMpT treatment, recorded as big movements ([5]; hour 2 after α-MpT): 103 ± 22%
Locomotor activity after α-MpT treatment, recorded as total movements ([5]; hour 3 after α-MpT): 141 ± 26%
Locomotor activity after αMpT treatment, recorded as big movements ([5]; hour 3 after α-MpT): 184 ± 39%
Locomotor activity after α-MpT treatment, recorded as total movements ([5]; hour 4 after α-MpT): 191 ± 45%
Locomotor activity after αMpT treatment, recorded as big movements ([5]; hour 4 after α-MpT): 85 ± 34%
Locomotor activity after α-MpT treatment, recorded as total movements ([5]; hour 5 after α-MpT): 229 ± 40%
Locomotor activity after αMpT treatment, recorded as big movements ([5]; hour 5 after α-MpT): 171 ± 61%
Locomotor activity after αMpT treatment, recorded as big movements ([5]; hour 6 after α-MpT): 65 ± 17%
Locomotor activity after α-MpT treatment, recorded as total movements ([5]; hour 7 after α-MpT): 204 ± 7%
Locomotor activity after αMpT treatment, recorded as big movements ([5]; hour 7 after α-MpT): 96 ± 29%
Locomotor activity after α-MpT treatment, recorded as total movements ([5]; hour 8 after α-MpT): 131 ± 23%
Locomotor activity after αMpT treatment, recorded as big movements ([5]; hour 8 after α-MpT): 91 ± 40%
Locomotor activity after α-MpT treatment, recorded as total movements ([5]; hour 9 after α-MpT): 137 ± 21%
Locomotor activity after αMpT treatment, recorded as big movements ([5]; hour 9 after α-MpT): 84 ± 23%
Locomotor activity after α-MpT treatment, recorded as total movements ([5]; hour 10 after α-MpT): 116 ± 22%
Locomotor activity after αMpT treatment, recorded as big movements ([5]; hour 10 after α-MpT): 29 ± 10%
effect on hypokinetic syndrome, big movements, in words ([5]; hypoxia group, ten hour observation): less effective
level of activity (total movements) versus corresponding control group, in words ([5]; hypoxic rats pretreated): much higher
